Laboratory results reported in patent publication US20220346381A1, “COMPOSITION FOR PREVENTING THE FORMATION OF SEEDS IN FRUIT” (ASOCIACION CLUB DE VARIEDADES VEGETALES PROTEGIDAS, priority 2019, published 2022).
Values joined by “and” are separate entries in the source; they are usually repeats but may differ in a detail not shown here. Equal values may be shown once. “Also recorded” adds a separate entry of the source.

Legend:
[1] = test system: Nadorcott variety (mandarin); test: Treatment of entire trees, number of seeds in the fruit; format: in vivo
[2] = test system: stigma papilla cells of mandarin flower; test: Microscopy of stigma treated with sulphur only or gibberellic acid only; format: in vivo; conditions: for state of stigma papilla cells (semi-thin cut): mandarin stigma treated with a single component only; for pollen tubes in the stigma of pollinated mandarin flower (fluorescence microscope): treated with a single component only
From the text: The active ingredient sulphur, preferably in the form of an octatomic molecule (S8), is responsible for preventing the formation of seeds through the alteration of papilla cells of the stigma, whilst the GA is responsible for re-establishing the stimuli needed for the formation of the fruit, thus preventing a possible reduction in yield. The need for GA will depend on each crop and its parthenocarpic capacity. […] This mechanism is substantially due to the effect of sulphur. […] The effect of the active ingredient (sulphur) and gibberellic acid (GA) on papilla cells can be compared separately in FIGS. 6 and 7 through semi-thin microscope cuts.

mandarin = conditions: literature [1,2]; cited from earlier work
[3] = purified powder; cited from earlier work
grapes Vitis vinifera L. = test: Treatment of individual pollinated flowers, pollen tubes in the stigma by fluorescence microscopy; format: in vivo
Protocol: (§1) Flower: treatment on individual flowers and microscopic observation of fluorescence. In this case the presence or absence of pollen tubes (PT) in the stigma was assessed as was their percentage reduction compared to positive controls. […] C+=Positive control=flower pollinated but NOT treated with the active product; PT=Pollen tubes (fluorescent fibres); AP=Active product.

[4] = test system: cucumber fruit Cucumis sativus L.; test: Treatment of individual flowers, observation of the fruit formed (seeds); format: in vivo; conditions: scale Fruit
From the text: (§2) Fruit: treatment of individual flowers and subsequent observation of the fruit formed from the treated flower. […] C+=Positive control=flower pollinated but NOT treated with the active product; PT=Pollen tubes (fluorescent fibres); AP=Active product.

[5] = test system: aubergines Solanum melongena L.; test: Treatment of individual flowers, fruit seeds and pollen tubes in the stigma; format: in vivo
From the text: as §2

[6] = test system: watermelons Citrullus lanatus (Thunb.) Matsum. & Nakai; test: Treatment of individual flowers, pollen tubes in the stigma; format: in vivo
Protocol: as §1, with “controls. Fruit: treatment of individual flowers and subsequent observation of the fruit formed from the treated flower.” for “controls.”

Mexican lime = test: Treatment of individual pollinated flowers, pollen tubes in the stigma; format: in vivo
Protocol: as §1

[7] = test system: Murcott Citrus reticulata White; test: as above; format: in vivo
Protocol: as §1

Nadorcott (mandarin) [8] = test: as above; format: in vivo
Protocol: as §1

[9] = test system: Nova. C. clementine x [C.paradisi x C.tangerina]; test: as above; format: in vivo
Protocol: as §1

[10] = test system: clementine fina Citrus clementine hort. Ex Tanaka; test: as above; format: in vivo
Protocol: as §1

[11] = test system: clemenules Citrus clementine hort. Ex Tanaka; test: as above; format: in vivo
Protocol: as §1

[12] = test system: lemons Citrus limon L. Burm. f.; test: as above; format: in vivo
Protocol: as §1

Nadorcott (mandarin) [13] = test: Field treatment by tractor on entire rows of adult trees, seeds; format: in vivo; conditions: scale Field
From the text: Field: treatments by tractor on entire rows of adult trees.

Sweet orange = test: Treatment of individual pollinated flowers, pollen tubes in the stigma; format: in vivo, orange tree
Protocol: as §1

Grapefruit = test: as above; format: in vivo, grapefruit tree
Protocol: as §1

[14] = test system: flowers of the Nadorcott mandarin; test: Action over time, pre-pollination treatment of flowers, seeds in fruit; format: in vivo; conditions: flowers treated, then pollinated D0 to D9; positive control 4.67 seeds
Protocol: (§3) In order to study the action over time of the product, two experiments were carried out on the flowers of the Nadorcott mandarin, one pre-pollination and the other post-pollination. In the pre-pollination experiment 300 flowers were treated with the product of the invention (S8) and subsequently pollinated in batches. One batch was pollinated on the same day (D0) and another batch the following day (D1), and so on successively until D9.

[15] = test system: flowers of the Nadorcott mandarin; test: Action over time, post-pollination treatment of flowers, seeds in fruit; format: in vivo
Protocol: as §3, with “D9. In the post-pollination experiment 360 flowers were first pollinated. In this case, after first having been pollinated a batch was treated with the product on the same day (D0), another batch the following day (D1) and so on successively until day 9 (D9).” for “D9.”

pollen grains = test: Germination of pollen grains on Petri dishes; format: cell-based; conditions: assessed after 72 hours
Protocol: The action of the product on the germination of pollen grains was studied. To that end, pollen grains were sown on Petri dishes in laboratory conditions to which growing medium increasing concentrations of the active product (S8) were added. After 72 hours they were assessed and the number of germinated pollen grains were counted on each Petri dish.
A non-toxic, neutral product (sample), KNO3 was used for comparing the results with those obtained from the active product (AP).

[16] = test system: adult trees of the Nadorcott mandarin variety; test: Phyto-toxicity on sprayed adult trees (chlorosis, necrosis, defoliation); format: in vivo; conditions: recommended concentrations (below 4%); listed as active product
Protocol: Phyto-toxicity tests were performed on adult trees of the Nadorcott mandarin variety. The trees were sprayed with different concentrations of the active product (S8). The level of affection on chlorosis, necrosis and defoliation was assessed, on a scale of 1 to 6, with 1 being very low and 6 being very high.

[17] = test system: common bumblebee (Bombus sp.); test: Effects on pollinators, laboratory mortality test; format: in vivo; conditions: for toxicity classification for bumblebees / pollinators: international scale: non-toxic = acute LD50 >100 μg/bee

Q: Which “mean number of seeds in the fruit” value ([1]; entire Nadorcott trees, about 120 fruits per treatment, positive control C+ 3.3) does the source give for `OC[C@H]1O[C@@](CO)(O[C@H]2O[C@H](CO)[C@@H](O)[C@H](O)[C@H]2O)[C@@H](O)[C@@H]1O` [Treatment T6, sucrose, reference compound] here?
A: Its value is 3.183.

Q: What does the source list for `C=C1C[C@]23C[C@@]1(O)CC[C@H]2[C@@]12C=C[C@H](O)[C@@](C)(C(=O)O1)[C@H]2[C@@H]3C(=O)O` [GA, gibberellic acid, reference compound]?
A: state of stigma papilla cells (semi-thin cut) [2]: intact, functional and turgid; state of stigma papilla cells (semi-thin cut) ([2]; listed as gibberellic acid): good, functional and turgid; pollen tubes in the stigma of pollinated mandarin flower (fluorescence microscope) [2]: developed pollen tubes can be clearly observed; pollen tubes in the stigma of pollinated mandarin flower (fluorescence microscope) ([2]; listed as gibberellic acid): presence of pollen tubes inside the stigma can be clearly seen; effectiveness for reducing the number of seeds in real field conditions (in words) (mandarin): not effective for reducing the number of seeds; solubility in ethanol [3]: soluble in ethanol; solubility in water [3]: somewhat soluble in water

Q: What does the source list for `S1SSSSSSS1` [(S8), sulphur (S) as an octatomic molecule (S8)]?
A: red. of seeds ([1]; Nadorcott, scale Tree): ~85%; reduction of the average number of seeds compared to the positive control (in words) ([1]; entire Nadorcott trees, six experimental products compared): only one to significantly reduce the average number of seeds; mean number of seeds in the fruit ([1]; entire Nadorcott trees, about 120 fruits per treatment, positive control C+ 3.3, listed as T1): 0.4 and 0.4083; red. of PT (grapes Vitis vinifera L.; Vid, scale Flower, vs positive control): =100% red. of PT (FIG. 9A and 9B); pollen tubes in treated stigma (fluorescence image) (grapes Vitis vinifera L.; grape, pollinated flower): without PT; red. seeds [4]: =100% red. seeds (FIG. 10A and 10B); red. seeds ([5]; Aubergine, scale Fruit): =100% red. seeds (FIG. 11A and 11B); pollen tubes in treated stigma (fluorescence image) ([5]; aubergine): without PT; red. of PT ([6]; Watermelon, scale printed Fruit): =100% red. of PT (FIG. 12A and 12B); pollen tubes in treated stigma (fluorescence image) ([6]; watermelon): without PT; pollen tubes in treated pollinated flowers (fluorescence image) (Mexican lime): No visible PT; red. of PT (Mexican lime; scale Flower): =100% red. of PT (FIG. 20); pollen tubes in treated stigma (fluorescence image) [7]: without PT; red. of PT ([7]; scale Flower): =100% red. of PT (FIG. 15A and 15B); red. of PT (Nadorcott (mandarin) [8]; Nadorcott, scale Flower): =100% red. of PT; efficiencies when applied directly on the flower (Nadorcott (mandarin) [8]; direct application on the flower): 95-100%; pollen tubes in treated stigma (fluorescence image) ([9]; Nova): without PT; red. of PT ([9]; Nova (tangelo), scale Flower): =100% red. of PT (FIG. 16A and 16B); red. of PT ([10]; Fina, scale Flower): =100% red. of PT (FIG. 14A and 14B); pollen tubes in treated stigma (fluorescence image) ([10]; clementine fina): without PT; red. of PT ([11]; Clemenules, scale Flower): =100% red. of PT (FIG. 13A and 13B); pollen tubes in treated stigma (fluorescence image) ([11]; clemenules): without PT; red. of PT ([12]; Lemon, scale Flower): =100% red. of PT (FIG. 17A and 17B); pollen tubes in treated stigma (fluorescence image) ([12]; lemon): without PT; red. of seeds (Nadorcott (mandarin) [13]): =81% red. of seeds; red. of PT (Sweet orange; Sweet orange, scale Flower): =100% red. of PT (FIG. 18); pollen tubes in treated pollinated flowers (fluorescence image) (Sweet orange; orange tree): No visible PT; red. of PT (Grapefruit; Grapefruit, scale Flower): =100% red. of PT (FIG. 19); pollen tubes in treated pollinated flowers (fluorescence image) (Grapefruit; grapefruit tree): No visible PT; seeds in fruit after pre-pollination treatment [14]: did not present a single seed; seeds prevented, post-pollination treatment ([15]; treated D0 to D3 after pollination, positive control 4.7 seeds): 100%; seeds prevented, post-pollination treatment ([15]; treated D4-D9 after pollination): approximately 50%; concentration at which inhibition of pollen grain germination is total (pollen grains): 2000 mg/L; phyto-toxicity (chlorosis, necrosis, defoliation) [16]: does not produce necrosis, chlorosis or defoliation; also recorded: not phyto-toxic; mortality rate ([17]; bumblebees, at 48 h): 50%; toxicity classification for bumblebees / pollinators ([17]; listed as active ingredient): non-toxic; toxicity classification for bumblebees / pollinators ([17]; listed as active product): non-toxic for pollinator insects; state of stigma papilla cell (TEM) ([2]; TEM, crop not stated): lost turgidity and part of its components and appears collapsed; state of stigma papilla cells (semi-thin cut) [2]: damaged; state of stigma papilla cells (semi-thin cut) ([2]; listed as active ingredient (sulphur)): damaged stigma, without turgidity; pollen tubes in the stigma of pollinated mandarin flower (fluorescence microscope) ([2]; listed as active ingredient (S8)): without pollen tubes; also recorded: no pollen tubes in the stigmatic area

Q: With `O=[N+]([O-])[O-].[K+]` [Treatment T3, potassium nitrate, reference compound] as the compound, how does the “mean number of seeds in the fruit” value ([1]; in vivo) read?
A: The value was 3.333.
